This is an account of results in patent publication US20110105435A1, “THERAPY OPTION FOR RECOLORATION OF HAIR VIA BISPHOSPHONATES BY PHYSIOLOGICAL REPIGMENTATION WITH AGE-RELATED AND/OR PREMATURE "GRAYED" PATIENTS” (priority 2007, published 2011).

The experiment deals with scalp hair. In words: Case observation: scalp hair recoloration in a myeloma patient on zoledronate monotherapy. It counts as in vivo, human. Conditions: Zometa 4 mg i.v. once monthly. As to the method: […] Multiple myeloma is a non-Hodgkin lymphoma and represents one of the most frequent malignant bone diseases.
Multiple myeloma in Stage I according to Durie and Salmon without osteolytic activity was diagnosed in the patient in November 2006. Since Stage I myeloma without clinically relevant symptoms are generally not aggressively treated with cytotostatic substances, the patient was included in an experimental monotherapy scheme applying Zometa® (active ingriedient: zoledronate), 4 mg i.v. in calcium-free infusion solution on a once monthly basis.
Zoledronate treatment is pursued for 6 months with a total of 6 therapy cycles until progression of myeloma (proliferation of plasma cell population in the bone marrow) made a more aggressive therapy approach necessary.
A suprising side-effect was observed:
The patient reported that they were black-haired during their teens and twens.
Since zoledronate was applied in monotherapy and no other relevant measures were deployed, the surprising change in hair coloration in the respective patient was caused by the bisphosphonate therapy of the underlying myeloma disease.

For `O=P(O)(O)C(O)(Cn1ccnc1)P(=O)(O)O` [zoledronate], for the setting “Stage I multiple myeloma patient, completely white-haired at therapy induction, 6 cycles, monotherapy”, the “change in hair coloration (repigmentation of white scalp hair)” value was “increasingly developed black scalp hair”. The “duration of treatment until white appearance switched to natural-looking dark-greyish shape” value (myeloma patient) is on record as 3-4 months.
